melting point: 223 to 225 °C
Structure (SMILES): Cc1ccc(-n2nc(C(C)(C)C)cc2NC(=O)Nc2ccc(F)cc2)cc1C [Example 32, 1-(5-tert-Butyl-2-(3,4-dimethylphenyl)-2H-pyrazol-3-yl)-3-(4-fluorophenyl)urea]
